By pIC50 is commonly meant the IC50 on a negative log10 scale, so that one unit is a factor of ten.

pIC50: −log10 of the molar value.

The assay has as its target human thrombin (Homo sapiens, UniProt P00734). Description: Measurement of thrombin inhibition (in vitro enzyme assay). Conditions: human thrombin 0.06 nmol/l, 15 min incubation at 22° C., pH 7.4; substrate 5 μmol/l Boc-Asp(OBzl)-Pro-Arg-AMC, 30 min, fluorescence. The format is biochemical. As to the method:
For determination of the thrombin inhibition of the aforementioned substances, a biochemical test system is used, in which the conversion of a thrombin substrate is used for determining the enzymatic activity of human thrombin. In this, thrombin cleaves aminomethylcoumarin from the peptic substrate, and this is measured by fluorescence. The determinations are carried out in microtitre plates.
The test substances are dissolved at different concentrations in dimethylsulphoxide and incubated for 15 min with human thrombin (0.06 nmol/l dissolved in 50 mmol/l Tris-buffer [C,C,C-Tris(hydroxymethyl)-aminomethane], 100 mmol/l NaCl, 0.1% BSA [bovine serum albumin], pH 7.4) at 22° C. Then the substrate (5 μmol/l Boc-Asp(OBzl)-Pro-Arg-AMC from the company Bachem) is added. After incubation for 30 min the sample is excited at a wavelength of 360 nm and the emission at 460 nm is measured. The measured emissions of the test preparations with test substance are compared with the control preparations without test substance (dimethylsulphoxide only, instead of test substance in dimethylsulphoxide) and IC50 values are calculated from the concentration-effect relations.
For the compound `O=C(NCc1cccc(Cl)c1)c1ccc2cn(CCN3CCOC3=O)nc2c1` [Example 4, N-(3-Chlorobenzyl)-2-[2-(2-oxo-1,3-oxazolidin-3-yl)ethyl]-2H-indazole-6-carboxamide], the negative-log IC50 (pIC50) is 6.67.
To `Cc1nn(CCn2cc3ccc(C(=O)NCc4cccc(Cl)c4)cc3n2)c(C)c1Cl` [Example 26, N-(3-Chlorobenzyl)-2-[2-(4-chloro-3,5-dimethyl-1H-pyrazol-1-yl)ethyl]-2H-indazole-6-carboxamide] belongs 6.96; to `CN(C)C(Cn1cc2ccc(C(=O)NCc3cccc(Cl)c3)cc2n1)c1ccccc1Cl` (stereo not drawn) [Example 49, N-(3-Chlorobenzyl)-2-[2-(2-chlorophenyl)-2-(dimethylamino)ethyl]-2H-indazole-6-carboxamide], 7.59.

The record behind these values is patent US20100105663A1, “2-(HETEROARYL) ALKYL INDAZOLE 6-PHENYL AND THIENYL METHYL AMIDE AS THROMBIN INHIBITORS” (BAYER HEALTHCARE AG, priority 2006, published 2010).
